# Measurements: patent publication US10874687B1 (Atea Pharmaceuticals, Inc., priority 2020, dated 2020)
# Values joined by “and” are separate entries in the source; they are usually repeats but may differ in a detail not shown here. Equal values may be shown once. Read-outs that look alike come from different tables or passages of the source. Marks after values point to notes of the source that are not given here.
# Tests used:
# [1] = test system: human nasal epithelial cells
# [2] = test system: human bronchial epithelial cells
# HCoV-229E [3] = assay: microbe, parasite or virus in culture; assay type: cell-based, human coronavirus alpha-229E; details: for EC50: Huh-7, read-out: Neutral Red Assay EC50
# Huh-7 cells = details: human
# in vivo = details: cynomolgus, cynomolgus monkey, po
# [4] = Plasma PK of metabolites in non-human primates after oral Compound 2A; details: cynomolgus, cynomolgus monkey, in vivo, 30 mg/kg
# [5] = Cytotoxicity in mock infected MES-1 cells (MTT); assay type: cell-based; details: Table 3A
# Experimental: (§1) To determine the cytotoxicity, cells were seeded at an initial density of 1×10^6 cells/mL in 96 well plates containing Minimum Essential Medium with Earles's salts (MEM-E), L-glutamine, 1 mM sodium pyruvate and 25 mg/L kanamycin, supplemented with 10% fetal bovine serum. Cell cultures were then incubated at 37° C. in a humidified 5% CO2 atmosphere in the absence or presence of serial dilutions of test compounds. Cell viability was determined by the MTT method.
# [6] = test system: mock infected MES-1 cells; assay: Cytotoxicity in mock infected MES-1 cells (MTT); assay type: cell-based; details: 3 days, Table 3B
# Experimental: as §1
# HCoV = assay: Protection of MES-1 cells from virus-induced cytopathogenicity (MTT); assay type: cell-based; details: unidentified human coronavirus, 72 h, 50% protection of MES-1 cells, day 3 post-infection
# Experimental: (§2) After a 3-day incubation at 37° C. cell viability was determined by the MTT method as described by Pauwels et al. (J. Virol. Methods 1988, 20, 309-321).
# HCoV-229E [7] = assay: Protection of BHK-21 cells from virus-induced cytopathogenicity (MTT); assay type: cell-based, human coronavirus; details: Human coronavirus 229E, read-out: EC50
# Experimental: as §2
# In an initial screening, BHK-21 cells acutely infected with a seasonal human alpha coronavirus, HCoV-229E, were exposed to serial dilutions of Compound 1A. […] No toxicity was detected from either drug.
# (§3) BHK-21 cells: Test compounds were dissolved in DMSO at 100 mM and then diluted in Minimum Essential Medium with Earle's salts (MEM-E) containing 1 mM sodium pyruvate and 25 μg/mL kanamycin, supplemented with 10% FBS (growth medium) to final concentrations of 100, 20, 4 and 0.8 μM (two 24-well replica plates each). After BHK-21 cells were grown to confluency in 96-well plates, growth medium was replaced with fresh maintenance medium (growth medium with 1% inactivated FBS in place of 10% FBS) containing serially diluted test compound and HCoV-229E at a multiplicity of infection (MOI) of 0.01. Uninfected cells in the presence of serially diluted compound were used to assess the cytotoxicity of compounds. After a 3-day incubation at 37° C. in a humidified 5% CO2 atmosphere, cell viability was determined by the MTT method (Pauwels, R et al. J. Virol. Methods 20(4):309-321 (1988)).
# [8] = Cytotoxicity in mock infected BHK-21 cells (MTT); assay type: cell-based, hamster; details: hamster
# Experimental: as §1, §3
# mock infected BHK cells = assay: Cytotoxicity in mock infected BHK-21 cells (MTT); assay type: cell-based, hamster; details: mock infected BHK cells; MTT; 3 days; Table 2B
# Experimental: as §1, §3
# [9] = test system: human bronchial epithelial cells; assay: Triphosphate levels in human bronchial epithelial cells after 8 h exposure and washout; details: for Mean Intracellular Compound 1-6 Concentration: bronchial cells, 10 μM Compound 1A for 8 h
# monkey hepatocytes = assay: Triphosphate levels in monkey hepatocytes; assay type: in vitro ADME; details: 10 μM Compound 1A
# [10] = Lung, kidney and liver tissue levels in non-human primates after oral Compound 2A; assay type: in vivo, cynomolgus monkeys; details: for half-life: after oral Compound 2A 30 mg/kg BID for 3 days; for trough (12 h) tissue level: 12 hours after the last dose of Compound 2A
# Experimental: (This corresponds to 55 ng/g (lung), 57 ng/g (kidney), and 43 ng/g (liver)). […] Plasma tough level of Compound 1-7, the surrogate for Compound 1-6 in plasma, was 39 ng/mL.
# [11] = Prediction of human tissue levels of triphosphate from monkey tissue levels
# Experimental: Based on the ratio (7.0) of human to monkey concentrations of triphosphate Compound 1-6 as assessed by its in vitro formation in primary hepatocytes, the predicted human tissue level was determined.
# human hepatocytes = assay: Triphosphate levels in human hepatocytes; assay type: in vitro ADME; details: for Mean Intracellular Compound 1-6 Concentration: human hepatocytes, 10 μM Compound 1A
# [12] = test system: human nasal epithelial cells; assay: Triphosphate levels in human nasal epithelial cells after 8 h exposure and washout
# HCV = details: HCV-infected subjects, cited from earlier work
# in vitro = details: human
# SARS-CoV-2 (WA1) = assay: microbe, parasite or virus in culture; assay type: cell-based; details: for EC90: Severe acute respiratory syndrome coronavirus 2, HAE
# [13] = Human coronavirus 229E, Huh-7, read-out: Virus Yield Reduction Assay EC90
# [14] = BHK, 72 h, 50% protection of BHK cells, MTT, day 3 post-infection, Table 2A
# [15] = BHK, 72 h, 50% protection of BHK cells, MTT, day 3 post-infection, Table 2B
# [16] = mock infected BHK-21 cells, mock infected BHK cells, MTT, 3 days, Table 2A
# [17] = read-out: Virus Yield Reduction Assay EC90
smiles,measurement,setting,value
Nc1ccn([C@@H]2O[C@@](CO)(CCl)[C@@H](O)[C@H]2F)c(=O)n1 [ALS-8112],ratio of triphosphate from Compound 1A vs. the named drug,[1],3
same,ratio of triphosphate from Compound 1A vs. the named drug,[2],5
"CCN(CC)CCCC(C)Nc1ccnc2cc(Cl)ccc12 (stereo not drawn) [chloroquine, reference compound]",EC50,HCoV-229E [3]; Human coronavirus 229E,8.1 µM
same,EC90,HCoV-229E [3]; [13],< 0.05 µM
same,CC50,Huh-7 cells,21 µM
"C[C@@]1(F)[C@H](O)[C@@H](CO)O[C@H]1n1cnc2c(=O)[nH]c(N)nc21 [Compound 1-7, 2-amino-9-((2R,3R,4R,5R)-3-fluoro-4-hydroxy-5-(hydroxymethyl)-3-methyltetrahydrofuran-2-yl)-1,9-dihydro-6H-purin-6-one]",concentration at 12 h,in vivo,39 ng/mL
same,AUC(0-t),in vivo; 30 mg/kg,0.47 µM·h
same,half-life,in vivo; 30 mg/kg,17 h
same,Cmax,[4],160 nM
same,Tmax,[4],2 h
CNc1nc(N)nc2c1ncn2[C@@H]1O[C@H](CO[P@](=O)(N[C@@H](C)C(=O)OC(C)C)Oc2ccccc2)[C@@H](O)[C@@]1(C)F [Compound 1B],CC50 at 3 days,[5],> 100 µM
same,CC50,[6],> 100 µM
same,EC50,HCoV; Table 3A,2 µM
same,EC50,HCoV; Table 3B,2.2 µM
same,EC50,HCoV-229E [7]; [14],2.5 µM
same,EC50,HCoV-229E [7]; [15],2.9 µM
same,CC50 at 3 days,[8]; [16],> 100 µM
same,CC50,mock infected BHK cells,> 100 µM
C[C@@]1(F)[C@H](O)[C@@H](COP(=O)(O)OP(=O)(O)OP(=O)(O)O)O[C@H]1n1cnc2c(=O)[nH]c(N)nc21 [Compound 1-6],Mean Intracellular Compound 1-6 Concentration,[9]; 15 h after washout,560 µM
same,Mean Intracellular Compound 1-6 Concentration,[9]; 48 h after washout,290 µM
same,half-life,[9]; intracellular triphosphate in bronchial cells after exposure to 10 μM Compound 1A,39 h
same,half-life,[9]; intracellular triphosphate in bronchial epithelial cells after Compound 1A,over 1.5 days
same,half-life,"[9]; intracellular triphosphate in bronchial epithelial cells after Compound 1A, listed as active triphosphate species",greater than 1.5 days
same,Mean Intracellular Compound 1-6 Concentration,monkey hepatocytes; incubation 2 h,2.1 µM
same,Mean Intracellular Compound 1-6 Concentration,monkey hepatocytes; incubation 4 h,3.1 µM
same,Mean Intracellular Compound 1-6 Concentration,monkey hepatocytes; incubation 8 h,2.9 µM
same,Mean Intracellular Compound 1-6 Concentration,monkey hepatocytes; incubation 24 h,1.7 µM
same,half-life,[10]; monkey kidney tissue,8.0 h
same,trough (12 h) tissue level,[10]; monkey kidney,57 ng/g
same,Mean Intracellular Compound 1-6 Concentration,"[10]; monkey kidney, 12 h post last dose of Compound 2A",0.13 µM
same,Mean Intracellular Compound 1-6 Concentration,"[10]; monkey kidney, 24 h post last dose of Compound 2A",0.032 µM
same,Mean Intracellular Compound 1-6 Concentration,"[10]; monkey kidney, 48 h post last dose of Compound 2A",0.004 µM
same,half-life,[10]; monkey liver tissue,4.3 h
same,trough (12 h) tissue level,[10]; monkey liver,43 ng/g
same,Mean Intracellular Compound 1-6 Concentration,"[10]; monkey liver, 12 h post last dose of Compound 2A",0.09 µM and 0.089 µM
same,Mean Intracellular Compound 1-6 Concentration,"[10]; monkey liver, 24 h post last dose of Compound 2A",0.021 µM
same,Mean Intracellular Compound 1-6 Concentration,"[10]; monkey liver, 48 h post last dose of Compound 2A",Not Detected
same,half-life,[10]; monkey lung tissue,9.4 h
same,trough (12 h) tissue level,[10]; monkey lung,55 ng/g
same,Mean Intracellular Compound 1-6 Concentration,"[10]; monkey lung, 12 h post last dose of Compound 2A",0.14 µM
same,Mean Intracellular Compound 1-6 Concentration,"[10]; monkey lung, 24 h post last dose of Compound 2A",0.037 µM
same,Mean Intracellular Compound 1-6 Concentration,"[10]; monkey lung, 48 h post last dose of Compound 2A",0.009 µM
same,triphosphate concentration in the lung compared to the liver,"[10]; monkey, 12-hour steady-state trough, oral Compound 2A 30 mg/kg BID",1.6 fold
same,Predicted Intracellular Triphosphate 1-6 Conc. at 12 hours Post-dose,[11],0.62 µM and 0.91 µM and 0.98 µM
same,predicted human lung intracellular level at trough (12 h) relative to in vitro EC90,"[11]; 1100 mg LD + 550 mg BID, EC90 against SARS-CoV-2 in HAE cell cultures",above the in vitro EC90
same,ratio of human to monkey hepatocyte triphosphate concentrations,human hepatocytes; assessed by AUC0-24 values,7 fold and 7.0 fold
same,Mean Intracellular Compound 1-6 Concentration,human hepatocytes; incubation 2 h,14 µM
same,Mean Intracellular Compound 1-6 Concentration,human hepatocytes; incubation 4 h,22 µM
same,Mean Intracellular Compound 1-6 Concentration,human hepatocytes; incubation 8 h,26 µM
same,Mean Intracellular Compound 1-6 Concentration,human hepatocytes; incubation 24 h,17 µM
same,half-life,[12]; intracellular triphosphate in nasal cells after exposure to 10 μM Compound 1A,38 h
same,half-life,[12]; intracellular triphosphate in nasal epithelial cells after Compound 1A,over 1.5 days
same,half-life,"[12]; intracellular triphosphate in nasal epithelial cells after Compound 1A, listed as active triphosphate species",greater than 1.5 days
same,Mean Intracellular Compound 1-6 Concentration,"[12]; nasal cells, 10 μM Compound 1A for 8 h, 24 h after washout",170 µM
CNc1nc(N)nc2c1ncn2[C@@H]1O[C@H](CO[P@@](=O)(N[C@@H](C)C(=O)OC(C)C)Oc2ccccc2)[C@@H](O)[C@@]1(C)F [Compound 2A],efficacy,HCV,high rate of efficacy
same,safety and tolerability,HCV; up to 12 weeks,safe and well-tolerated
"O=c1nc(NO)ccn1[C@@H]1O[C@H](CO)[C@@H](O)[C@H]1O [N^4-hydroxycytidine, reference compound]",CC50,in vitro,> 19 µM
same,Selectivity Index,SARS-CoV-2 (WA1),>5.1
same,EC90,SARS-CoV-2 (WA1); read-out: EC90 of the single replicates,4.7 µM
same,EC90,SARS-CoV-2 (WA1); [17],3.9 µM
"CC(C)OC(=O)[C@H](C)N[P@](=O)(OC[C@H]1O[C@@H](n2ccc(=O)[nH]c2=O)[C@](C)(F)[C@@H]1O)Oc1ccccc1 [sofosbuvir, reference compound]",CC50 at 3 days,[5],> 100 µM
same,CC50,[6],> 100 µM
same,EC50,HCoV; Table 3A,> 100 µM
same,EC50,HCoV; Table 3B,> 100 µM
same,EC50,HCoV-229E [7]; [14],> 100 µM
same,EC50,HCoV-229E [7]; [15],> 100 µM
same,EC50,"HCoV-229E [7]; BHK-21, HCoV-229E in BHK-21, dye staining, average of 2 experiments, Table 5",> 100 µM
same,CC50 at 3 days,[8]; [16],> 100 µM
same,CC50 at 3 days,"[8]; uninfected BHK-21 cells, BHK-21, Table 5",> 100 µM
same,CC50,mock infected BHK cells,> 100 µM
"CCN(CCO)CCCC(C)Nc1ccnc2cc(Cl)ccc12 (stereo not drawn) [hydroxychloroquine, reference compound]",Selectivity Index (CC50/EC50),HCoV-229E [3],3.5^c
same,EC50,HCoV-229E [3]; Human coronavirus 229E,7.4 µM
same,EC90,HCoV-229E [3]; [13],< 0.05 µM
same,EC90,HCoV-229E [3]; [17],< 0.048 µM
same,CC50,Huh-7 cells,26 µM
